Reference: PubChem BioAssay (NCI)
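Results reflect a 48-hour exposure of cells in 96-well plates to compound at five concentrations. GI50 marks 50% less growth. TGI marks complete inhibition of growth.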

Assays:
Test in all cases: NCI-60 cell line screen, 48 h
[1] = system: A498 renal
[2] = system: A549 NSCLC
[3] = system: BT-549 breast
[4] = system: CAKI-1 renal
[5] = system: CCRF-CEM leukemia
[6] = system: COLO 205 colon
[7] = system: DU-145 prostate
[8] = system: EKVX NSCLC
[9] = system: HCT-116 colon
[10] = system: HCT-15 colon
[11] = system: HL-60(TB) leukemia
[12] = system: HOP-62 NSCLC
[13] = system: HOP-92 NSCLC
[14] = system: HS 578T breast
[15] = system: HT29 colon
[16] = system: KM12 colon
[17] = system: LOX IMVI melanoma
[18] = system: M14 melanoma
[19] = system: MCF7 breast
[20] = system: MDA-MB-435
[21] = system: MOLT-4 leukemia
[22] = system: NCI-H226 lung
[23] = system: NCI-H23 lung
[24] = system: NCI-H460 lung
[25] = system: NCI-H522 lung
[26] = system: NCI/ADR-RES ovarian
[27] = system: OVCAR-3 ovarian
[28] = system: OVCAR-4 ovarian
[29] = system: OVCAR-5 ovarian
[30] = system: OVCAR-8 ovarian
[31] = system: PC-3 prostate
[32] = system: RXF 393 renal
[33] = system: SF-268 CNS
[34] = system: SF-295 CNS
[35] = system: SK-MEL-2 melanoma
[36] = system: SK-OV-3 ovarian
[37] = system: SNB-19 CNS
[38] = system: SNB-75 CNS
[39] = system: SR leukemia
[40] = system: SW-620 colon
[41] = system: T-47D breast
[42] = system: TK-10 renal
[43] = system: U251 CNS
[44] = system: UACC-257 melanoma
[45] = system: UO-31 renal
[46] = system: ACHN renal
[47] = system: HCC-2998 colon
[48] = system: MDA-MB-231 breast
[49] = system: RPMI-8226 leukemia
[50] = system: SK-MEL-28 melanoma
[51] = system: SK-MEL-5 melanoma

COC1=CC(c2ccc[nH]2)=N/C1=C\c1[nH]c(C)c(C)c1CCC(=O)OCc1ccccc1
GI50 [1]: 563 nM
TGI [1]: 1990 nM
GI50 [2]: 602 nM
TGI [2]: 11100 nM
GI50 [3]: 378 nM
TGI [3]: 2900 nM
GI50 [4]: 300 nM
TGI [4]: 2080 nM
GI50 [5]: 142 nM
TGI [5]: 2590 nM
GI50 [6]: 257 nM
TGI [6]: 1150 nM
GI50 [7]: 446 nM
TGI [7]: 6820 nM
GI50 [8]: 281 nM
TGI [8]: 1900 nM
GI50 [9]: 65 nM
TGI [9]: 1110 nM
GI50 [10]: 305 nM
TGI [10]: 1180 nM
GI50 [11]: 799 nM
TGI [11]: 3460 nM
GI50 [12]: 355 nM
TGI [12]: 1840 nM
GI50 [13]: 217 nM
TGI [13]: 732 nM
GI50 [14]: 289 nM
TGI [14]: 1680 nM
GI50 [15]: 191 nM
TGI [15]: 1360 nM
GI50 [16]: 242 nM
TGI [16]: 1800 nM
GI50 [17]: 217 nM
TGI [17]: 705 nM
GI50 [18]: 285 nM
TGI [18]: 1000 nM
GI50 [19]: 293 nM
TGI [19]: 2190 nM
GI50 [20]: 440 nM
TGI [20]: 1640 nM
GI50 [21]: 240 nM
TGI [21]: 1440 nM
GI50 [22]: 377 nM
TGI [22]: 2460 nM
GI50 [23]: 382 nM
TGI [23]: 2550 nM
GI50 [24]: 623 nM
TGI [24]: 10800 nM
GI50 [25]: 256 nM
TGI [25]: 1620 nM
GI50 [26]: 382 nM
TGI [26]: 2010 nM
GI50 [27]: 304 nM
TGI [27]: 1350 nM
GI50 [28]: 246 nM
TGI [28]: 4430 nM
GI50 [29]: 709 nM
TGI [29]: 7070 nM
GI50 [30]: 366 nM
TGI [30]: 1440 nM
GI50 [31]: 277 nM
TGI [31]: 5870 nM
GI50 [32]: 496 nM
TGI [32]: 1830 nM
GI50 [33]: 369 nM
TGI [33]: 2920 nM
GI50 [34]: 224 nM
TGI [34]: 894 nM
GI50 [35]: 572 nM
TGI [35]: 2100 nM
GI50 [36]: 1790 nM
TGI [36]: 5160 nM
GI50 [37]: 676 nM
TGI [37]: 14000 nM
GI50 [38]: 226 nM
TGI [38]: 728 nM
GI50 [39]: 175 nM
TGI [39]: 618 nM
GI50 [40]: 322 nM
TGI [40]: 1620 nM
GI50 [41]: 227 nM
TGI [41]: 876 nM
GI50 [42]: 390 nM
TGI [42]: 3090 nM
GI50 [43]: 322 nM
TGI [43]: 1520 nM
GI50 [44]: 1270 nM
TGI [44]: 2970 nM
GI50 [45]: 209 nM
TGI [45]: 459 nM

CNC(=O)c1cc(Oc2cccc3nc(NC(=O)Nc4ccc(F)cc4F)ccc23)ccn1
GI50 [1]: 418 nM
TGI [1]: 23300 nM
GI50 [46]: 2130 nM
TGI [46]: > 50000 nM
GI50 [3]: > 50000 nM
TGI [3]: > 50000 nM
GI50 [4]: 1610 nM
TGI [4]: > 50000 nM
GI50 [5]: > 50000 nM
TGI [5]: > 50000 nM
GI50 [47]: > 50000 nM
TGI [47]: > 50000 nM
GI50 [10]: 302 nM
TGI [10]: > 50000 nM
GI50 [14]: 1400 nM
TGI [14]: 3990 nM
GI50 [17]: 1680 nM
TGI [17]: > 50000 nM
GI50 [18]: 1890 nM
TGI [18]: > 50000 nM
GI50 [19]: 1660 nM
TGI [19]: > 50000 nM
GI50 [48]: 1590 nM
TGI [48]: > 50000 nM
GI50 [20]: 1500 nM
TGI [20]: > 50000 nM
GI50 [23]: 2400 nM
TGI [23]: > 50000 nM
GI50 [26]: 1600 nM
TGI [26]: > 50000 nM
GI50 [30]: 1650 nM
TGI [30]: > 50000 nM
GI50 [49]: 2200 nM
TGI [49]: > 50000 nM
GI50 [32]: 1240 nM
TGI [32]: 2990 nM
GI50 [33]: 1900 nM
TGI [33]: > 50000 nM
GI50 [35]: > 50000 nM
TGI [35]: > 50000 nM
GI50 [50]: 1420 nM
TGI [50]: > 50000 nM
GI50 [51]: 1020 nM
TGI [51]: > 50000 nM
GI50 [39]: 410 nM
TGI [39]: > 50000 nM
